According to paper PMC10544575, “Inhibitory mechanism of vortioxetine on CYP450 enzymes in human and rat liver microsomes” (Frontiers in Pharmacology, 2023):
Read-outs that look alike come from different tables or passages of the source.

What was measured:
CYP2B [1] = test: IC50 of vortioxetine on CYP2B (bupropion) in RLMs; assay type: in vitro ADME; settings: rat, rat liver microsomes, probe bupropion
Procedure: (§1) The components of the incubation system were as follows: 0.20 mg/mL HLMs or 0.20 mg/mL RLMs, 0.1 M Tris-HCl, vortioxetine, and the probe substrates of each enzyme. In the study of Km’s (Michaelis–Menten constant) experiment, midazolam (1, 2, 5, 10, 20, 50 and 100 μM in HLMs and RLMs) corresponded to CYP3A4/3A; bupropion (10, 20, 50, 100, 200, 500, 1,000 and 2000 μM in HLMs; 1, 2, 5, 10, 20, 50, 100 and 200 μM in RLMs) corresponded to CYP2B6/2B; amodiaquine (5, 10, 20, 50, 100 and 200 μM in HLMs; 10, 20, 50, 100, 200, 500 μM in RLMs) corresponded to CYP2C8/CYP2C-1; losartan (1, 2, 5, 10, 20, 50, 100, 200 μM in HLMs; 10, 20, 50, 100, 200, 500 and 1,000 μM in RLMs) corresponded to CYP2C9/CYP2C-2; mephenytoin (20, 50, 100, 200, 500 and 1,000 μM in HLMs; 5, 10, 20, 50, 100, 200, 500 and 1,000 μM in RLMs) corresponded to CYP2C19/CYP2C-3; and dextromethorphan (1, 2, 5, 10, 20, 50 and 100 μM in HLMs and RLMs) corresponded to CYP2D6/CYP2D. […]
(§2) All experiments results were detected by UPLC-MS/MS, which equipped with a Waters Acquity UPLC system (Milford, MA, United States) and a Waters Xevo TQ-S triple quadrupole tandem mass spectrometer with an electrospray ionization source (Milford, MA, United States). […]
(§3) IC50 values and enzyme kinetic parameters were calculated by Graphpad Prism 6.0 (GraphPad software Inc., CA, United States). […] Data for each experiment were expressed as mean ± SD (n = 3).

CYP2C-3 = test: Reversible inhibition kinetics (Lineweaver-Burk), CYP2C-3 in RLMs; assay type: in vitro ADME, rat
Procedure: The components of the incubation system were as follows: 0.20 mg/mL HLMs or 0.20 mg/mL RLMs, 0.1 M Tris-HCl, vortioxetine, and the probe substrates of each enzyme. In the study of Km’s (Michaelis–Menten constant) experiment, midazolam (1, 2, 5, 10, 20, 50 and 100 μM in HLMs and RLMs) corresponded to CYP3A4/3A; bupropion (10, 20, 50, 100, 200, 500, 1,000 and 2000 μM in HLMs; 1, 2, 5, 10, 20, 50, 100 and 200 μM in RLMs) corresponded to CYP2B6/2B; amodiaquine (5, 10, 20, 50, 100 and 200 μM in HLMs; 10, 20, 50, 100, 200, 500 μM in RLMs) corresponded to CYP2C8/CYP2C-1; losartan (1, 2, 5, 10, 20, 50, 100, 200 μM in HLMs; 10, 20, 50, 100, 200, 500 and 1,000 μM in RLMs) corresponded to CYP2C9/CYP2C-2; mephenytoin (20, 50, 100, 200, 500 and 1,000 μM in HLMs; 5, 10, 20, 50, 100, 200, 500 and 1,000 μM in RLMs) corresponded to CYP2C19/CYP2C-3; and dextromethorphan (1, 2, 5, 10, 20, 50 and 100 μM in HLMs and RLMs) corresponded to CYP2D6/CYP2D. After 5.0 min of preincubation in the shaking water bath, the reaction was started with the addition of 1.0 mM NADPH. The incubated temperature at 37°C for 30 min. After the incubation, the enzyme reaction was stopped by cooling at −80°C, and 200 μL of acetonitrile and 20 μL of internal standard diazepam (200 ng/mL) were added for protein precipitation. The solution was fully vortexed and centrifuged at 13,000 × rpm for 10 min, and the supernatant was collected for data analysis by UPLC-MS/MS.
The inhibitory mechanism of the inhibitor on the enzyme was generally used by different concentrations of the inhibitor against different concentrations of the probe substrate. The concentrations of the inhibitor and the concentrations of probe substrates in the experiment were estimated based on IC50 and Km values, respectively.
In RLMs, the concentrations of the substrates midazolam and dextromethorphan were 0.8, 1.6, 3.5, 7 μM and 5, 10, 20, 40 μM, respectively, vortioxetine concentrations were 4, 8, 16, 32 μM. The concentrations of mephenytoin and amodiaquine were 100, 200, 400, 800 μM and 5, 10, 20, 40 μM, respectively, vortioxetine concentrations were 5, 10, 20, 40 μM. The losartan concentrations were 4, 8, 15, 30 μM, corresponding to vortioxetine concentrations of 0.08, 0.15, 0.3, 0.6 μM. […]
as §2, §3

CYP2C-1 [2] = test: IC50 of vortioxetine on CYP2C-1 (amodiaquine) in RLMs; assay type: in vitro ADME; settings: rat, rat liver microsomes, probe amodiaquine
Procedure: as §1, §2, §3

CYP2B [3] = test: Reversible inhibition kinetics (Lineweaver-Burk), CYP2B in RLMs; assay type: in vitro ADME, rat
Procedure: as §1, §2, §3

CYP2C-1 [4] = test: IC50-shift experiment, CYP2C-1 in RLMs; assay type: in vitro ADME, rat
[5] = inhibitory effect (strength judged by IC50), RLMs

SMILES: Cc1ccc(Sc2ccccc2N2CCNCC2)c(C)c1 [vortioxetine]
- IC50 at 30 min (CYP2B [1]; RLMs 0.20 mg/mL, bupropion at Km, 37°C, 30 min, read-out: IC50): 8.89 µM
- IC50 at 30 min (CYP2B [1]; [5]): 1 to 10 µM
- α (CYP2C-3; mephenytoin): 2.97
- Inhibition type (CYP2C-3; mephenytoin, Lineweaver-Burk plot): noncompetitive inhibition
- αKi (CYP2C-3; mephenytoin, secondary plot of y-intercepts): 12.54 µM
- Ki at 30 min (CYP2C-3; rat, rat liver microsomes, probe mephenytoin): 4.23 µM
- IC50 at 30 min (CYP2C-1 [2]; RLMs 0.20 mg/mL, amodiaquine at Km, 37°C, 30 min, read-out: IC50): 22.2 µM
- IC50 at 30 min (CYP2C-1 [2]; [5]): > 10 µM
- Inhibition type (CYP2B [3]; bupropion, Lineweaver-Burk plot): competitive inhibition
- Ki at 30 min (CYP2B [3]; rat, rat liver microsomes, probe bupropion): 2.87 µM
- IC50 (CYP2C-1 [4]; 30 min preincubation without NADPH, amodiaquine 20 μM): 19.8 µM
- IC50 at 30 min (CYP2C-1 [4]; rat, rat liver microsomes, probe amodiaquine, 30 min preincubation without NADPH, amodiaquine 20 μM): 18.3 µM
- IC50 shift at 30 min (CYP2C-1 [4]; rat, rat liver microsomes, probe amodiaquine, ratio IC50 (−) NADPH to IC50 (+) NADPH, read-out: IC50 fold shift): 1.98
